We go through four substances from paper PMC6693507 (Analytical chemistry, 2019).

In one data set the test system is WT ACE. Nature of the data set: 100 μL of HEPES buffer. Conditions: mouse (ACE purified from mouse lung and kidney), 37 °C, up to 30 min.
A further data set deals with T1, ACE (Mus musculus, UniProt P09470).
T1 sequence (P09470 35-1312): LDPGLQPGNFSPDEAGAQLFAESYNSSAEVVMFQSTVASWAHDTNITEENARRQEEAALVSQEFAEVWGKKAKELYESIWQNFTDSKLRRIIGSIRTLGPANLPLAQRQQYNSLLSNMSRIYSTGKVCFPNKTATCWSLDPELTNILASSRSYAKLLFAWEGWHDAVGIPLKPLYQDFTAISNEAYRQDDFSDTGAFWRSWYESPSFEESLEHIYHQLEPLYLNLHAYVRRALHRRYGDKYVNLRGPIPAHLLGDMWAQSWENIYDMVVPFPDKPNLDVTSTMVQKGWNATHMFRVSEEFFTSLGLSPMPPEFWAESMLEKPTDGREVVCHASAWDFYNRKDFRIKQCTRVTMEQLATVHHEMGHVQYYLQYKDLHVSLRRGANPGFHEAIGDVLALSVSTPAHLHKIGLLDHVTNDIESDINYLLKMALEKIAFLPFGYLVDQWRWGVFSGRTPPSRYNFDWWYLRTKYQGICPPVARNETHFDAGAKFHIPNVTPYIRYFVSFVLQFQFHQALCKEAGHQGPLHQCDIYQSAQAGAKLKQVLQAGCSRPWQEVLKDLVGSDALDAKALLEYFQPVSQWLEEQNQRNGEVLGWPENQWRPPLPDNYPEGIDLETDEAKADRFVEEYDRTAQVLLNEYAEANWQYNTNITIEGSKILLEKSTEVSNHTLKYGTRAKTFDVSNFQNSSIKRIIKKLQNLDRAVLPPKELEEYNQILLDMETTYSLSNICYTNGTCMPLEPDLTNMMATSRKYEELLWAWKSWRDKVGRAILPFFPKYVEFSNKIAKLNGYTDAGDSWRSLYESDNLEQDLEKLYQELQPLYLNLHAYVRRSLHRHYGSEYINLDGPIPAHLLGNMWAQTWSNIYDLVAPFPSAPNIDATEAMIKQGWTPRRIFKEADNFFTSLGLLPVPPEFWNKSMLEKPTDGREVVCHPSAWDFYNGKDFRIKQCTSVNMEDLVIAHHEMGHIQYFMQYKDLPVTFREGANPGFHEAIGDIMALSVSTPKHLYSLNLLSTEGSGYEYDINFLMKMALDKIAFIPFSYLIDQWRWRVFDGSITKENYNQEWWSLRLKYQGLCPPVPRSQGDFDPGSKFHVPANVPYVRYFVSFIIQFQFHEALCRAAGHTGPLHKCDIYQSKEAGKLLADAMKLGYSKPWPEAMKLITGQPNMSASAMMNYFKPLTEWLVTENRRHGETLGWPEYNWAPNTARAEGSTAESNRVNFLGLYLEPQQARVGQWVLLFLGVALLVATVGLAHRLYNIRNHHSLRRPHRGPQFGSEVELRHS
Nature of the data set: In vitro ACE cleavage of synthetic peptides, MALDI-TOF MS. Conditions: 2 pmol/μL peptide, WT ACE or NKO ACE, 30 min, 37 °C. It is filed as biochemical.

As for WGTGSPRPG, the not cleaved entry in the data set on WT ACE is listed as “not further cleaved by ACE”. As to “FSSLMNLEEKPAPAA [apolipoprotein A-II (87–101)]”, the “cleavage products detectable by MALDI-MS” value at ACE was “not detectable”. The same measure, in the same setting: with “FPDGTKEMD [serine-protease inhibitor A3K (22–30)]” the entry was “not detectable”.

With FPRSPL, in the data set with WT ACE, the not cleaved entry is recorded as “not further cleaved by ACE”.
